Assay results: patent publication US20070225203A1, “Method and Composition for Preventing Multiple Organ Dysfunction Syndrome” (N.V. NUTRICIA, priority 2003, published 2007)

Legend:
xanthine oxidase = xanthine oxidase (Homo sapiens, UniProt P47989); test: Xanthine oxidase inhibition by flavonoids; assay type: biochemical
[1] = Oxidative stress, plasma concentrations of malon dialdehyde
HepG2 cells = test: GTP concentration in folic acid challenged HepG2 cells; assay type: cell-based, human
Description: HepG2 cells, a human hepatocarcinoma cell line, were obtained from ATCC. These were maintained in MEM supplemented with 10% FCS; 1% NEAA; 1% penicillin/streptomycin mixture. Cells were seeded primarily at a density of approximately 1-2×10^6 cells and were split and transferred to new flasks when showing 70-90% confluency. 96-well microtitre plates (ex Micronic, Leylstad, N L.), containing 0.35×10^6 cells per well were incubated for 24 hours at 37° C.; 5% CO2. HepG2's were folic acid challenged by addition of folic acid free media for 1 hour. This folic acid challenged cells were compared with cells that remained at an increasing concentration of folic acid or ribose.
Nucleotides were measured as described by van Hoorn et al., Analytical Biochemistry (2003), 320, 82-87.
1. 6.5 hours incubation of HepG2 cells in either folic acid depleted media or media containing 2.27 μM folic acid

xanthine oxidase, sequence (P47989 whole entry, species assumed): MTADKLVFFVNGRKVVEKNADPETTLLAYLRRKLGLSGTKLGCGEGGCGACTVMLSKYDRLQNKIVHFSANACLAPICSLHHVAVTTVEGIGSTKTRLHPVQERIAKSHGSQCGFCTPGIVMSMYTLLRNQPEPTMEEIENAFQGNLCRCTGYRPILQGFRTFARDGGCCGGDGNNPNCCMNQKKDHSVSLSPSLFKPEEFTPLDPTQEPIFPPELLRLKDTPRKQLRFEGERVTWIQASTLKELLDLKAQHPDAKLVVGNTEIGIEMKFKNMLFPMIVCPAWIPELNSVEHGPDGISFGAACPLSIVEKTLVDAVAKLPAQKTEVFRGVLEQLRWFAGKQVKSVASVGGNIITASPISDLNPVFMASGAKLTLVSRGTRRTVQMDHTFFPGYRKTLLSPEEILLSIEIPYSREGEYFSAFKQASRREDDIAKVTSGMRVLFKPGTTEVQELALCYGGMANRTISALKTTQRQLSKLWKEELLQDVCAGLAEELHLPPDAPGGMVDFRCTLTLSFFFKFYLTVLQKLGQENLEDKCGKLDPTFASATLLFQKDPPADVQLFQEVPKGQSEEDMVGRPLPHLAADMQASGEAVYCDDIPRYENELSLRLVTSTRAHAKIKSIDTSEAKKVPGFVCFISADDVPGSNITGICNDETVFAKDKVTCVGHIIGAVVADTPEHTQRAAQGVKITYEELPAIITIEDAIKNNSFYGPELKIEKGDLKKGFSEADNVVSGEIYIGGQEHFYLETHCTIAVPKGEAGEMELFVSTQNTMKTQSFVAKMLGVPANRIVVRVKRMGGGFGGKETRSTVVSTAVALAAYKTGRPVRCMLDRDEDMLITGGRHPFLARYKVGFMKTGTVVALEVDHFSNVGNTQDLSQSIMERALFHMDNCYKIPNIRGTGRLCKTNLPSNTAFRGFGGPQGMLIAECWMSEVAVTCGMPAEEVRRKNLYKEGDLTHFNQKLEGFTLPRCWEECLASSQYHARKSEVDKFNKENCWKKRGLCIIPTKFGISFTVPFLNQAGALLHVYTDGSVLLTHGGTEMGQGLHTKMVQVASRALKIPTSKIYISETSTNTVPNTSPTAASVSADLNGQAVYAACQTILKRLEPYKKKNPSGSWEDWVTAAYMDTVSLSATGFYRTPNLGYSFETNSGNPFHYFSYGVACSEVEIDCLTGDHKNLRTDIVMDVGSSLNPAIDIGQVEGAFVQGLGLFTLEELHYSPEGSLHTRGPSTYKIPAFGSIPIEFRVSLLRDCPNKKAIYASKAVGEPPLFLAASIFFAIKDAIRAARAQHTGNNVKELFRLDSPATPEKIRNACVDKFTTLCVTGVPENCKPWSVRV

SMILES | xanthine oxidase inhibition (xanthine oxidase) | oxidative stress, plasma concentrations of malon dialdehyde [1] | GTP concentration in HepG2 cells, ribose on top of folic acid (HepG2 cells; combination of ribose with folic acid, FIG. 10) | GTP concentration in HepG2 cells (HepG2 cells; single agent vs folic acid challenged cells, folic acid 2.27 μM, 6.5 hours)
O=c1cc(-c2ccc(O)c(O)c2)oc2cc(O)cc(O)c12 [luteolin] | good xanthine oxidase inhibitors | inhibit oxidative stress | – | –
O=C[C@H](O)[C@H](O)[C@H](O)CO [ribose] | – | – | additive effect | –
Nc1nc2ncc(CNc3ccc(C(=O)N[C@@H](CCC(=O)O)C(=O)O)cc3)nc2c(=O)[nH]1 [folic acid] | – | – | – | significantly increased
O=c1c(O)c(-c2ccc(O)c(O)c2)oc2cc(O)cc(O)c12 [quercetin] | good xanthine oxidase inhibitors | inhibit oxidative stress | – | –
O=c1cc(-c2ccc(O)cc2)oc2cc(O)cc(O)c12 [apigenin] | good xanthine oxidase inhibitors | inhibit oxidative stress | – | –
